Results reported in patent US20240142437A1, “METHODS TO PREVENT TERATOGENICITY OF IMID LIKE MOLECULES AND IMID BASED DEGRADERS/PROTACS” (DANA-FARBER CANCER INSTITUTE, INC., priority 2017, published 2024).

What was measured:
[1] = molecular target: T1, SALL4 (Homo sapiens, UniProt Q96SW2+Q9UJQ4); experiment: Western blot of SALL4 protein levels in human cell lines; type: cell-based; conditions: for effect of co-treatment on IMiD-induced SALL4 degradation: co-treatment with thalidomide, 5 μM bortezomib, 5 μM MLN4924, 0.5 μM MLN7243, HEK293T, SK-N-DZ cells; for SALL4 degradation in CRBN−/− cells: CRBN−/− Kelly and HEK293T cells; for SALL4 protein levels by western blot: 24 hours
T1 construct: endogenous in cells; host or cells: Kelly, SK-N-DZ, HEK293T (western blot)
T1 sequence (Q9UJQ4 whole entry): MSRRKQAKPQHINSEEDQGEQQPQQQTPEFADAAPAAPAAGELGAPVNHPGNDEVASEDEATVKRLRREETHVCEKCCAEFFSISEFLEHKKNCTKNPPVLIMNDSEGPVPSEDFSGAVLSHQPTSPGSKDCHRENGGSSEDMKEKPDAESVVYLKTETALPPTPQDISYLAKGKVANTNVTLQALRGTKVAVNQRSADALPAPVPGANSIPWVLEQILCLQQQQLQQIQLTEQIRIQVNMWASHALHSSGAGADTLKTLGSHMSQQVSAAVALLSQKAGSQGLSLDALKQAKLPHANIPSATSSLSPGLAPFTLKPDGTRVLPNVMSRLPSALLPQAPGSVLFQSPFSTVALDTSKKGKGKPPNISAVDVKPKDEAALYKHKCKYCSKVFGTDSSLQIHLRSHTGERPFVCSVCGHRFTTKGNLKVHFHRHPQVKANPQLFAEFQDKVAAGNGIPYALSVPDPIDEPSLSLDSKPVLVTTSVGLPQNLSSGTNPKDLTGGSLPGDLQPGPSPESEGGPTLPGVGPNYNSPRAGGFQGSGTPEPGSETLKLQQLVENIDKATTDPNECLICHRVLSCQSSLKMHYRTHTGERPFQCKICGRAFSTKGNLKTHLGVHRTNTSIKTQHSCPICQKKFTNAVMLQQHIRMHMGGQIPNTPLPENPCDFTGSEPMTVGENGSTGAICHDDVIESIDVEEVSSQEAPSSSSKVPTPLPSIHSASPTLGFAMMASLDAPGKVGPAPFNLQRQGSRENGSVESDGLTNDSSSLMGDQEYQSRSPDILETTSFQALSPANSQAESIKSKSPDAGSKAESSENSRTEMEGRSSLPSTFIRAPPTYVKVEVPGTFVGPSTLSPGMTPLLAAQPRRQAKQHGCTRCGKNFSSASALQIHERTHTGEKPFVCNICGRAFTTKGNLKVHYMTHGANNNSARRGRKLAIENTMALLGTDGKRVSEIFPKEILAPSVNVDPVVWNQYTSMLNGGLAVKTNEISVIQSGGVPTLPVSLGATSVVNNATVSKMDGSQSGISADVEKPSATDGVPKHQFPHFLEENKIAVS
T1 sequence (Q96SW2 whole entry): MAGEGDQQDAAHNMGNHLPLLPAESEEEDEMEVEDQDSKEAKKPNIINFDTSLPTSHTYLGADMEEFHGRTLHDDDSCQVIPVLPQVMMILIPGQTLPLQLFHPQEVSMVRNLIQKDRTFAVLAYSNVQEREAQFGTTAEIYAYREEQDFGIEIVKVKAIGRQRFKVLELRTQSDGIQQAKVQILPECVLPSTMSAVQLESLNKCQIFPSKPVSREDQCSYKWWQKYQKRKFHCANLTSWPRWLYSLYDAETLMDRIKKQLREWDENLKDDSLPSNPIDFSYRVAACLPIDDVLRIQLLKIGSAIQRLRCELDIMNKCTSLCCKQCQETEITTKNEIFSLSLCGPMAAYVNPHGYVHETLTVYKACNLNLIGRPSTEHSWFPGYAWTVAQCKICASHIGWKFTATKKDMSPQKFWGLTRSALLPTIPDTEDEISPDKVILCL
T1 sequence (Q16531 2-1140 partner limits assumed): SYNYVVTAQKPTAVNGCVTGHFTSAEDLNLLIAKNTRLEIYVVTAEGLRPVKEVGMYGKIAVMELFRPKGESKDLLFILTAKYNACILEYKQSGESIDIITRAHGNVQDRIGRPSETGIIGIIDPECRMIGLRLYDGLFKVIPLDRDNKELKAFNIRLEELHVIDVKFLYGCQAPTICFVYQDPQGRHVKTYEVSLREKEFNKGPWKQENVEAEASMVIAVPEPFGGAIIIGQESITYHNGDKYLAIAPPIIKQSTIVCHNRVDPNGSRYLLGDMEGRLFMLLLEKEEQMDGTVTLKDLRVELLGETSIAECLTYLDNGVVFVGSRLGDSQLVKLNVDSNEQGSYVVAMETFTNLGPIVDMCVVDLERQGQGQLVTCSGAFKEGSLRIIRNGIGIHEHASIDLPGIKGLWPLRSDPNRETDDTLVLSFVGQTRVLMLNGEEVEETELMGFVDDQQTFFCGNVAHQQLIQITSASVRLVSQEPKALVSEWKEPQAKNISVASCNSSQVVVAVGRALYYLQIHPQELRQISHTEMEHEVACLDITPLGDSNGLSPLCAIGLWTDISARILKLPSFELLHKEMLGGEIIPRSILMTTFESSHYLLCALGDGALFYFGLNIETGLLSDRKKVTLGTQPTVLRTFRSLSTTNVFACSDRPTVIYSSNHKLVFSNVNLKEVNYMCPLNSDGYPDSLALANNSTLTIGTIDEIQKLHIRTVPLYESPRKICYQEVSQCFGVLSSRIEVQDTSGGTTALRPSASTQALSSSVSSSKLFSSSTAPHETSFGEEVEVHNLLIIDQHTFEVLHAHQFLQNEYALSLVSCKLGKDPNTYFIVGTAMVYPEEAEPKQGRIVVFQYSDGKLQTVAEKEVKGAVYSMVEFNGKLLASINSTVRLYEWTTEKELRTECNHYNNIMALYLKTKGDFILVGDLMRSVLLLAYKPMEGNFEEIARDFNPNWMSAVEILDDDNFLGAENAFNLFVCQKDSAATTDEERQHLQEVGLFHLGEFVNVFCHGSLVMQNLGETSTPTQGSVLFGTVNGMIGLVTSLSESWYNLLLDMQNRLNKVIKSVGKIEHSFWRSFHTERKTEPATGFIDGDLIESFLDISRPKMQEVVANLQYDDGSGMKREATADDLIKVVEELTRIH
Method: HEK293T cells were cultured in DMEM supplemented with 10% dialyzed fetal bovine serum (FBS) and 2 mM L-Glutamine. SK-N-DZ cells were cultured in DMEM supplemented with 10% dialyzed FBS, 0.1 mM Non-Essential Amino Acids (NEAA) and 2 mM L-Glutamine. H661, MM1s and Kelly cells were cultured in RPMI1640 supplemented with 10% dialyzed FBS. H9 hESC cells were cultured in Essential 8 (Gibco) media on Matrigel-coated nunc tissue culture plates.
(§1) Samples were run on 4-20%, AnyKD or 10% (in-vitro ubiqutination assay) SDS-PAGE Gels (Bio-rad), and transferred to PVDF membranes using the iBlot 2.0 dry blotting system (Thermo Fisher Scientific). Membranes were blocked with LiCor blocking solution (LiCor), and incubated with primary antibodies overnight, followed by three washes in LiCor blocking solution and incubation with secondary antibodies for one hour in the dark. After three final washes, the membranes were imaged on a LiCor fluorescent imaging station (LiCor). When Anti-mouse IgG, HRP Antibody was used, after three washes, the membranes were incubated with Amersham ECL Prime Western Blotting Detection Reagent for 1 minute and subjected to imaging by Amersham Imager 600 (GE).

[2] = molecular target: T2, mmSALL4 (Mus musculus, UniProt Q8BX22); experiment: Western blot of mmSALL4 in mouse embryonic stem cells; type: cell-based; conditions: mESC, increasing concentrations, 24 hours
T2 construct: endogenous in cells; host or cells: TC1 mouse embryonic stem cells
Method: HEK293T cells were cultured in DMEM supplemented with 10% dialyzed fetal bovine serum (FBS) and 2 mM L-Glutamine. SK-N-DZ cells were cultured in DMEM supplemented with 10% dialyzed FBS, 0.1 mM Non-Essential Amino Acids (NEAA) and 2 mM L-Glutamine. H661, MM1s and Kelly cells were cultured in RPMI1640 supplemented with 10% dialyzed FBS. H9 hESC cells were cultured in Essential 8 (Gibco) media on Matrigel-coated nunc tissue culture plates. TC1 mouse embryonic stem cells (mESCs) were adapted to gelatin cultures and fed with KO-DMEM (Gibco) supplemented with 15% stem cell-qualified fetal bovine serum (FBS, Gemini), 2 mM L-glutamine (Gibco), 20 mM HEPES (Gibco), 1 mM sodium pyruvate (Gibco), 0.1 mM of each non-essential amino acids (Gibco), 0.1 mM 2-mercaptoethanol (Sigma), […] mLIF (Gemini).
Cells were treated with compounds as indicated and incubated for 24 hours, or as indicated. Samples were run on 4-20%, AnyKD or 10% (in-vitro ubiqutination assay) SDS-PAGE Gels (Bio-rad), and transferred to PVDF membranes using the iBlot 2.0 dry blotting system (Thermo Fisher Scientific). Membranes were blocked with LiCor blocking solution (LiCor), and incubated with primary antibodies overnight, followed by three washes in LiCor blocking solution and incubation with secondary antibodies for one hour in the dark. […]

[3] = cited from earlier work; for plasma half-life (t1/2) / Cmax: typical dose of 200-400 mg, 25 mg, or 2 mg for thalidomide, lenalidomide, or pomalidomide; for Cmax: read-out: maximum plasma concentration (Cmax)
[4] = system: IMiD-dependent CRL4^CRBN substrates; experiment: TMT quantification mass spectrometry proteomics, IMiD-dependent neo-substrates (hESC, Kelly, SK-N-DZ, MM1s cells); type: cell-based, human; conditions: for substrate specificity: proteins degraded across cell lines: hESC, MM1s, Kelly, SK-N-DZ cells expressing detectable levels of the proteins; for number of substrates identified (rank order): proteomics, treatment with different IMiDs
Method: Since degradation is mediated through CRL4^CRBN, and because CRBN expression levels are high in the central nervous system (CNS), the effects of IMiDs were assessed in two different neuroblastoma cell lines, Kelly and SK-N-DZ cells, as well as the commonly used multiple myeloma cell line, MM1s, as a control.
Proteins were precipitated using methanol/chloroform.

[5] = molecular target: Flag-mmSALL4 (UniProt Q8BX22+Q96SW2); experiment: Western blot of transiently transfected Flag-mmSALL4 in Kelly cells; type: cell-based, mouse; conditions: Y415F, P418S, I419V, L430F, Q435H
Chain of Flag-mmSALL4 (Q8BX22 whole entry): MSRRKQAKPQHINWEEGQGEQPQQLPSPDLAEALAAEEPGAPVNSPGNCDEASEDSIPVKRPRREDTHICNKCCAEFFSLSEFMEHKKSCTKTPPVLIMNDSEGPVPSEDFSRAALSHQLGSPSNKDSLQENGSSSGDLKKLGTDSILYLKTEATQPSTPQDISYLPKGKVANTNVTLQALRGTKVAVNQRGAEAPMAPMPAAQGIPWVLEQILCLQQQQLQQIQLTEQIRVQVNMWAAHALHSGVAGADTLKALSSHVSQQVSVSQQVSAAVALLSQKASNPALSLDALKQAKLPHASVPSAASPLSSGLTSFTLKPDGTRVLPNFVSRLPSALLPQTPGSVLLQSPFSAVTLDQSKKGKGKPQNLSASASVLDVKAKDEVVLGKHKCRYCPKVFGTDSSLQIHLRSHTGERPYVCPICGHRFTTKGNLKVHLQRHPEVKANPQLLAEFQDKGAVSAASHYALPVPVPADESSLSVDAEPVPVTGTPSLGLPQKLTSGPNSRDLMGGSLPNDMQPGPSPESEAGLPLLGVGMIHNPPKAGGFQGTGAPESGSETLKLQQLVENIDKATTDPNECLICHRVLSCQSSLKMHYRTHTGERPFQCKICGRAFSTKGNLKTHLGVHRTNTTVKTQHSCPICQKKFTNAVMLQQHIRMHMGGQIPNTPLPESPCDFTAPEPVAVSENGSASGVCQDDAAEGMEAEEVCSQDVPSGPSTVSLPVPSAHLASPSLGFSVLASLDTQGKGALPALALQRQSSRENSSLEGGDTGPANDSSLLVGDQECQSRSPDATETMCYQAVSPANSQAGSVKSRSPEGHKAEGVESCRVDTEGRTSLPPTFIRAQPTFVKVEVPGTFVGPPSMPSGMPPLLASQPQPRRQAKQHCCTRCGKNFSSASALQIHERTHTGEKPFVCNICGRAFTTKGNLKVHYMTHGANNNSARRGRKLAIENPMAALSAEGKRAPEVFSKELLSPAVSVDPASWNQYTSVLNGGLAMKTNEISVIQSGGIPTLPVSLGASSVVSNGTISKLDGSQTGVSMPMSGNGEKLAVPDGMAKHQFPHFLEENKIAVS
Chain of Flag-mmSALL4 (Q96SW2 whole entry): as the sequence (Q96SW2 whole entry) above
Chain of Flag-mmSALL4 (Q16531 2-1140 partner limits assumed): as the sequence (Q16531 2-1140 partner limits assumed) above
Method: as §1, with “Cells were treated with compounds as indicated and incubated for 24 hours, or as indicated. Samples” for “Samples”
(§2) hsCRBN, hsSALL4, mmSALL4 and drSALL4 were PCR amplified and cloned into a pNTM-Flag based vector. Mutagenesis was performed using the Q5 site-directed mutagenesis kit (NEB, USA) with primers designed using the BaseChanger web server (http://nebasechanger.neb.com/).
For transient transfection, 0.2 million cells were seeded per well in a 12 well plate on day one. On day two, cells were transfected with 200-300 ng of plasmid (pNTM-Flag containing gene of interest) using 2 μL of lipofectamine 2000 transfection reagent (Invitrogen). […]

[6] = system: Flag-hsSALL4; experiment: Western blot of transiently transfected Flag-hsSALL4 (WT or mutant) in Kelly cells; type: cell-based, human; conditions: 24 hours
Method: as §1, with “Cells were treated with compounds as indicated and incubated for 24 hours, or as indicated. Samples” for “Samples”
as §2
For transient transfection, 0.2 million cells were seeded per well in a 12 well plate on day one. On day two, cells were transfected with 200-300 ng of plasmid (pNTM-Flag containing gene of interest) using 2 μL of lipofectamine 2000 transfection reagent (Invitrogen). On day three, desired concentration of IMiD was added to each well and cells were harvested after 24 hours for western blot analysis using the protocol described above.

[7] = system: SALL4 mRNA; experiment: Quantitative RT-PCR of total SALL4 mRNA in H9 hES cells; type: cell-based, human; conditions: 10 μM thalidomide, 24 hours, normalized to GAPDH
Method: RNA was isolated using the RNeasy Plus mini kit (Qiagen) and cDNA created by reverse transcription using ProtoScript II reverse transcriptase (NEB) following the manufacturer's instructions. The following primer sets from IDT were used with SYBR Green Master Mix (Applied Biosystems) to probe both GAPDH and total SALL4 levels:
Analysis was performed on a CFX Connect Real-Time PCR System (Bio-Rad) in a white 96-well PCR plate. Relative expression levels were calculated using the […] method.

[8] = molecular target: SALL4 ZnF domains and DDB1ΔB-CRBN (Homo sapiens, UniProt Q96SW2+Q9UJQ4); experiment: TR-FRET in vitro CRBN binding assay; conditions: SALL4ZnF2; in accordance with cellular potency in degradation of SALL4
Chain of SALL4 ZnF domains and DDB1ΔB-CRBN (Q96SW2 whole entry, stated change not applied, the tested form may be a part): as the sequence (Q96SW2 whole entry) above
Chain of SALL4 ZnF domains and DDB1ΔB-CRBN (Q9UJQ4 402-436, stated change not applied): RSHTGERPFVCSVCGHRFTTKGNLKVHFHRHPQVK
Method: Before TR-FRET measurements were conducted, the reactions were incubated for 15 minutes at RT. […] The TR-FRET signal of each data point was extracted by calculating the 520/490 nm ratios.

[9] = Kelly, SK-N-DZ, HEK293T and H661 cells, increasing concentrations

For `NS(=O)(=O)OC[C@H]1C[C@@H](Nc2ccnc3cc(-c4cccc(SC(F)(F)F)c4)nn23)[C@H](O)[C@@H]1O` [MLN7243], the “effect of co-treatment on IMiD-induced SALL4 degradation” value ([1]; Kelly) was “abrogated”.

In the case of `O=C1CCC(N2C(=O)c3ccccc3C2=O)C(=O)N1` (stereo not shown) [thalidomide, 2-(2,6-dioxopiperidin-3-yl)-1H-isoindole-1,3(2H)-dione], the “degradation of mmSALL4” value [2] is listed as “does not promote degradation of mmSALL4”, the “plasma concentration in humans” value ([3]; human, in vivo) is listed as ≤ 10 µM and the “plasma half-life (t1/2)” value [3] is listed as 6 to 8 h. For the same molecule, the Cmax [3] was 5 to 10 µM, the “substrate specificity: proteins degraded across cell lines” value [4] was “robust degradation of the zinc finger transcription factors ZNF692, SALL4, and the ubiquitin ligase RNF166” and the “number of substrates identified (rank order)” value [4] was “Thal <Len<<Pom”. For the same molecule, the “degradation of mmSALL4 with humanized ZnF2 domain” value [5] was “degradation was induced”, the “degradation of wild type Flag-hsSALL4” value [6] was “readily degraded” and the “degradation of Flag-SALL4 with G416A or G416N mutations in ZnF2” value ([6]; thalidomide) was “rendered SALL4 stable”. For the same molecule, the “degradation of Flag-SALL4 with G600A or G600N mutations in ZnF4” value ([6]; thalidomide) was “readily degraded”, the “SALL4 degradation at plasma-relevant concentration” value ([1]; 10 μM) was “effective degradation of SALL4” and the “SALL4 degradation in CRBN−/− cells” value ([1]; increasing concentrations) was “no degradation of SALL4 was observed”. The “SALL4 protein levels by western blot” value ([1]; H9 hESC, increasing doses) was “dose dependent decrease in protein levels”, the “SALL4 protein levels by western blot” value [1, 9] was “dose-dependent decrease” and the “SALL4 mRNA level” value [7] was “does not reduce the level of SALL4 mRNA, but rather upregulates SALL4 mRNA”. The “SALL4 mRNA level” value ([7]; listed as Thalidomide) was “did not influence the expression of SALL4 mRNA” and the “rank order in binding observed with ZnF2” value [8] was “Pom >Thal>>Len”.

In the case of `CC(C)C[C@H](NC(=O)[C@H](Cc1ccccc1)NC(=O)c1cnccn1)B(O)O` [bortezomib], the “effect of co-treatment on IMiD-induced SALL4 degradation” value ([1]; Kelly) is reported as “abrogated”.

In the case of `O=C1CC[C@H](N2Cc3c(OCc4ccc(CN5CCOCC5)cc4)cccc3C2=O)C(=O)N1` [CC-220], the “degradation of ZnF targets including SALL4 (proteomics)” value ([4]; SK-N-DZ cells, 0.1 μM CC-220, 1 μM dBET57, 5 hours (FIG. 6C)) is reported as “effective inducers of ZnF targets including SALL4 degradation”.

For `Nc1cccc2c1C(=O)N(C1CCC(=O)NC1=O)C2=O` (stereo not shown) [pomalidomide], the “degradation of mmSALL4” value [2] is given as “does not promote degradation of mmSALL4”, the “plasma half-life (t1/2)” value [3] is given as ~9 h and the Cmax [3] is given as 0.05 µM. The “further proteins degraded in proteomics” value ([4]; H9 hESC, 5 hours, 5 μM lenalidomide, 1 μM pomalidomide) was “degradation of additional targets including the previously characterized zinc finger protein ZFP91 (An et al., 2017), and the largely uncharacterized proteins ZBTB39, FAM83F, WIZ, RAB28, and DTWD1”, the “substrate specificity: proteins degraded across cell lines” value [4] was “robust degradation of ZBTB39, ZFP91, DTWD1, and ZNF653” and the “number of substrates identified (rank order)” value [4] was “Thal <Len<<Pom”. For the same molecule, the “SALL4 degradation in CRBN−/− cells” value ([1]; increasing concentrations) was “no degradation of SALL4 was observed”, the “SALL4 protein levels by western blot” value ([1]; H9 hESC, increasing doses) was “dose dependent decrease in protein levels” and the “earliest time of SALL4 degradation post-treatment” value ([1]; Kelly cells, 1 or 5 μM pomalidomide) was 4 h. The “SALL4 protein levels by western blot” value [1, 9] was “dose-dependent decrease” and the “rank order in binding observed with ZnF2” value [8] was “Pom >Thal>>Len”.

For `Nc1cccc2c1CN(C1CCC(=O)NC1=O)C2=O` (stereo not shown) [lenalidomide], the “plasma half-life (t1/2)” value [3] is listed as ~3 h.

With `NS(=O)(=O)OC[C@@H]1C[C@@H](n2ccc3c(N[C@H]4CCc5ccccc54)ncnc32)C[C@@H]1O` [MLN4924] the “effect of co-treatment on IMiD-induced degradation of targets (rescue proteomics)” value ([4]; SK-N-DZ cells, 1 μM pomalidomide + 5 μM MLN4924, 5 hours) was “fully abrogated IMiD-induced degradation of targets” and the “effect of co-treatment on IMiD-induced SALL4 degradation” value ([1]; Kelly) was “abrogated”.
